Here are results for twelve compounds from ChEMBL document CHEMBL1914304 (J Med Chem, 2011).

SMILES strings stand for the structures.

Data set [1] has as its system HepG2. Put plainly: Cytotoxicity against human HepG2 cells after 72 hrs by luminescence assay. The data set is classed as cell-based. To be noted: hepg2, 72 h.
The nature of data set [2]: Selectivity ratio of EC50 for human HepG2 cells to EC50 for Plasmodium falciparum.
Data set [3] has as its system Raji. In words: Cytotoxicity against human Raji cells after 72 hrs by luminescence assay. The data set is classed as cell-based.
For data set [4], the system named is BJ. In words: Cytotoxicity against human BJ cells after 72 hrs by luminescence assay. The data set is classed as cell-based.
Data set [5] relates to HEK293. In words: Cytotoxicity against human HEK293 cells after 72 hrs by luminescence assay. The format is cell-based. To be noted: hek293, 72 h.

Take `Cl.O=C(CCc1ccccc1)c1ccccc1OCC(O)CN1CCC(O)(c2ccc(Cl)cc2)CC1` (racemic): the Activity entry in data set [1], in data set [3], in data set [4] and in data set [5] was “Non-toxic” in each case. In addition, the selectivity ratio in data set [2] is > 10.

In the case of `Cl.O=C(CCc1ccccc1)c1ccccc1OCC(O)CN1CCN(c2ccccc2)CC1` (racemic), the Activity entry in data set [1], in data set [3], in data set [4] and in data set [5] was “Non-toxic” each time. The selectivity ratio in data set [2] is > 10.

Consider `Cl.O=C(CCc1ccccc1)c1ccccc1OCC(O)CN1CCN(Cc2ccccc2)CC1` (racemic), for which the Activity entry in data set [1], in data set [3], in data set [4] and in data set [5] was “Non-toxic” in each case. Further, in data set [2], the selectivity ratio is > 10.

Regarding `Cc1ccccc1N1CCN(CC(O)COc2ccccc2C(=O)CCc2ccccc2)CC1.Cl` (racemic), the Activity entry in data set [1], in data set [3], in data set [4] and in data set [5] was “Non-toxic” each time. Also, the selectivity ratio in data set [2] is > 10.

Turning to `Cc1cccc(N2CCN(CC(O)COc3ccccc3C(=O)CCc3ccccc3)CC2)c1.Cl` (racemic), the Activity result in data set [1], in data set [3], in data set [4] and in data set [5] was “Non-toxic” in each case. In addition, in data set [2], the selectivity ratio is > 10.

Turning to `COc1ccccc1N1CCN(CC(O)COc2ccccc2C(=O)CCc2ccccc2)CC1.Cl` (racemic), the Activity result in data set [1], in data set [3], in data set [4] and in data set [5] was “Non-toxic” throughout. In data set [2], the selectivity ratio is > 10.

Take `COc1cccc(N2CCN(CC(O)COc3ccccc3C(=O)CCc3ccccc3)CC2)c1.Cl` (racemic): the Activity result in data set [1], in data set [3], in data set [4] and in data set [5] was “Non-toxic” each time. Further, in data set [2], the selectivity ratio was > 10.

As for `COc1ccc(N2CCN(CC(O)COc3ccccc3C(=O)CCc3ccccc3)CC2)cc1.Cl` (racemic), the Activity result in data set [1], in data set [3], in data set [4] and in data set [5] was “Non-toxic” in each case. Also, the selectivity ratio in data set [2] was > 10.

With `Cl.O=C(CCc1ccccc1)c1ccccc1OCC(O)CN1CCN(c2ccccc2Cl)CC1` (racemic), the Activity entry in data set [1], in data set [3], in data set [4] and in data set [5] was “Non-toxic” throughout. In addition, the selectivity ratio in data set [2] is > 10.

For the compound `Cl.O=C(CCc1ccccc1)c1ccccc1OCC(O)CN1CCN(c2ccc(Cl)cc2)CC1` (racemic), the Activity result in data set [1], in data set [3], in data set [4] and in data set [5] was “Non-toxic” in each case. In addition, the selectivity ratio in data set [2] is > 10.

For `Cl.O=C(CCc1ccccc1)c1ccccc1OCC(O)CN1CCN(c2ccc(Cl)c(Cl)c2)CC1` (racemic), the Activity result in data set [1], in data set [3], in data set [4] and in data set [5] was “Non-toxic” in each case. Besides, the selectivity ratio in data set [2] is > 10.

Take `Cl.O=C(CCc1ccccc1)c1ccccc1OCC(O)CN1CCN(c2ccccc2F)CC1` (racemic): the Activity entry in data set [1], in data set [3], in data set [4] and in data set [5] was “Non-toxic” throughout. For the same compound, the selectivity ratio in data set [2] is > 10.
